Patent US20090170902A1, “COMPOUNDS WHICH POTENTIATE GLUTAMATE RECEPTOR AND USES THEREOF IN MEDICINE” (priority 2006, published 2009)

Target: T1, human GluR2 flip (unedited) AMPA receptor subunit (Homo sapiens, UniProt P42262)
T1 construct: expressed in transfected cells
Experiment: Calcium influx fluorescence assay (FLUO4, FLIPR)
Type: cell-based
Conditions: HEK293; HEK 293 cells expressing human GluR2 flip (unedited); relative to fluorescence increase induced by cyclothiazide at maximum response; read-out: activity relative to cyclothiazide (at its maximal response)
Description: 384 well plates are prepared containing confluent monolayer of HEK 293 cells either stably expressing or transiently transfected with human GluR2 flip (unedited) AMPA receptor subunit. These cells form functional homotetrameric AMPA receptors. The tissue culture medium in the wells are discarded and the wells are each washed three times with standard buffer (80 μL) for the stable cell line (145 mM NaCl, 5 mM KCl, 1 mM MgCl2, 2 mM CaCl2, 20 mM N-[2-hydroxyethyl]-piperazine-N-[2-ethanesulfonic acid (HEPES), 5.5 mM glucose, pH 7.3) or with a Na-free buffer for the transient transfected cells (145 mM N-methyl-glucamine instead of NaCl). The plates are then incubated for 60 minutes in the dark with 2 μM FLUO4-AM dye (20 μL) (Molecular Probes, Netherlands) at room temperature to allow cell uptake of the FLUO-4AM, which is then converted to FLUO-4 by intracellular esterases which is unable to leave the cell. After incubation each well is washed three times with buffer (80 μL) (30 μL of buffer remained in each well after washing).
Compounds of the invention (or reference compounds such as cyclothiazide) are dissolved in dimethylsulfoxide (DMSO) at a stock concentration of 10 mM. These solutions are further diluted with DMSO using a Biomek FX (Beckman Coulter) in a 384 compound plate. Each dilution (1 μL) is transferred to another compound plate and buffer (50 μL) is added. An agonist stimulus (glutamate) plate is prepared by dissolving sodium glutamate in water to give a concentration of 100 mM. This solution is diluted with buffer to give a final concentration of 500 μM and dispensed into another 384-well plate (50 μL/well) using a Multidrop (Thermolabsystems).
The cell plate is then transferred into a fluorescence imaging plate based reader [such as the FLIPR384 (Molecular Devices)]. A baseline fluorescence reading is taken over a 10 to 240 second period, and then 10 μL from each plate containing a compound of the invention made up in standard buffer solution (in a concentration range from […]) is added (to give a final concentration in the range 30 μM to 3 pM). The fluorescence is read over 5 minute period. 500 μM glutamate solution (10 μL) is added (to give a final concentration of 100 μM). The fluorescence is then read over a 4 minute period. The activities of the compounds of the invention and reference compounds are determined by measuring peak fluorescence after the last addition. The activity is also expressed relative to the fluorescence increase induced by cyclothiazide at their maximum response (i.e. greater than 30 μM).
The assay described above is believed to have an effective limit of detection of a pEC50 in the region of 3.5-4.0 due to the limitations of compound solubility. The pEC50 result is generally considered to be accurate +/−0.3.

T1 sequence (P42262 25-883 isoform P42262-2 limits assumed): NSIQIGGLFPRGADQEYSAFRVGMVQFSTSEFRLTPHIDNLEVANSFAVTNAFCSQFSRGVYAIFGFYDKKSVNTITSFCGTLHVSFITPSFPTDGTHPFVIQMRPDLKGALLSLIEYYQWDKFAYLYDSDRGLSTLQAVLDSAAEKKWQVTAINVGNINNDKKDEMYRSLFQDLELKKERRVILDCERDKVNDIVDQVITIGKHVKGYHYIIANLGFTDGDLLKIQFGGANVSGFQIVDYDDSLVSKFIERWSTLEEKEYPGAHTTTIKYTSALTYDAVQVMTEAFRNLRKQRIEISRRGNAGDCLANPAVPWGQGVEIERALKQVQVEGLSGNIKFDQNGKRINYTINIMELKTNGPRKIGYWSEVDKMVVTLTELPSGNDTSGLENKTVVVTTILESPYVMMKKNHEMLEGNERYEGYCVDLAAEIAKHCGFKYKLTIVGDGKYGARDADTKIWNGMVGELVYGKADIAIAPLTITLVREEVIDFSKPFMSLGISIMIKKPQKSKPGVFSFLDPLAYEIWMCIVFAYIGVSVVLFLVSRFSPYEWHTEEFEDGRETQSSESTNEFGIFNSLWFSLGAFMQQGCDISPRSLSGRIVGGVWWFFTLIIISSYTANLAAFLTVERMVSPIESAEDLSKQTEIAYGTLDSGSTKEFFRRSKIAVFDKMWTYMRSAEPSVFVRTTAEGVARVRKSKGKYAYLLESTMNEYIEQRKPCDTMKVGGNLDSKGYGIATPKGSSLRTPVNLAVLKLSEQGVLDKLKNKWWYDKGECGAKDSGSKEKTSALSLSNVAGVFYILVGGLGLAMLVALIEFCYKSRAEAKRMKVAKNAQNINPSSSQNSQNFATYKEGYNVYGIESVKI

Row | SMILES | Emax [%]
1 | CC(C)S(=O)(=O)N[C@@H]1CCO[C@@H]1c1ccc(-c2cccs2)cc1 (relative stereo) [Example 9, N-{cis-2-[4-(2-thienyl)phenyl]tetrahydro-3-furanyl}-2-propanesulfonamide] | ≥ 50
2 | CC(C)S(=O)(=O)N[C@@H]1CCO[C@@H]1c1ccc(-c2ccc(C#N)cc2)cc1 (relative stereo) [Example 7, N-[cis-2-(4′-cyano-4-biphenylyl)tetrahydro-3-furanyl]-2-propanesulfonamide] | ≥ 50
3 | Cc1cncc(-c2ccc([C@H]3OCC[C@H]3NS(=O)(=O)C(C)C)cc2)c1 (relative stereo) [Example 5, N-{cis-2-[4-(5-methyl-3-pyridinyl)phenyl]tetrahydro-3-furanyl}-2-propanesulfonamide] | ≥ 50
4 | Cc1ccc(-c2ccc([C@H]3OCC[C@H]3NS(=O)(=O)C(C)C)cc2)cn1 (relative stereo) [Example 2, N-{cis-2-[4-(6-methyl-3-pyridinyl)phenyl]tetrahydro-3-furanyl}-2-propanesulfonamide] | ≥ 50
5 | CC(=O)c1cccc(-c2ccc([C@H]3OCC[C@H]3NS(=O)(=O)C(C)C)cc2)c1 (relative stereo) [Example 8, N-[cis-2-(3′-acetyl-4-biphenylyl)tetrahydro-3-furanyl]-2-propanesulfonamide] | ≥ 50
6 | CC(C)S(=O)(=O)N[C@@H]1CCO[C@@H]1c1ccc(-c2ccc(F)cc2)cc1 (relative stereo) [Example 6, N-[cis-2-(4′-fluoro-4-biphenylyl)tetrahydro-3-furanyl]-2-propanesulfonamide] | ≥ 50
7 | CC(C)S(=O)(=O)N[C@@H]1CCO[C@@H]1c1ccc(-c2ccc(F)cn2)cc1 (relative stereo) [Example 3, N-{cis-2-[4-(5-fluoro-2-pyridinyl)phenyl]tetrahydro-3-furanyl}-2-propanesulfonamide] | ≥ 50
8 | CC(C)S(=O)(=O)N[C@@H]1CCO[C@@H]1c1ccc(-c2cncc(F)c2)cc1 (relative stereo) [Example 4, N-{cis-2-[4-(5-fluoro-3-pyridinyl)phenyl]tetrahydro-3-furanyl}-2-propanesulfonamide] | ≥ 50
9 | CC(C)S(=O)(=O)N[C@@H]1CCO[C@@H]1c1ccc(-c2ccc(F)nc2)cc1 (relative stereo) [Example 1, N-{cis-2-[4-(6-fluoro-3-pyridinyl)phenyl]tetrahydro-3-furanyl}-2-propanesulfonamide] | ≥ 50
